The results in this text go back to ChEMBL document CHEMBL5113482, “Discovery of fused benzimidazole-imidazole autophagic flux inhibitors for treatment of triple-negative breast cancer” (Eur J Med Chem, 2022).

Assay [1] relates to SW-620. Briefly: Antiproliferative activity against human SW-620 cells assessed as cell growth inhibition measured after 48 hrs by MTT assay. The format is functional, cell-based. As to conditions: SW-620, 48 h. In general terms: Tetrazolium assays rely on reduction of a dye to a coloured formazan, in cell work by metabolically active cells.
Assay [2] concerns PC-3. Briefly: Antiproliferative activity against human PC-3 cells assessed as cell growth inhibition measured after 48 hrs by MTT assay. The format is functional, cell-based. As to conditions: PC-3, 48 h.
Assay [3] deals with U-87 MG. Nature of the assay: Antiproliferative activity against human U87 cells assessed as cell growth inhibition measured after 48 hrs by MTT assay. The class given is functional, cell-based, U-87MG ATCC.
The subject of assay [4] is LN-229. Nature of the assay: Antiproliferative activity against human LN-229 cells assessed as cell growth inhibition measured after 48 hrs by MTT assay. As to conditions: LN-229, 48 h. The class given is functional, cell-based.
In assay [5] the test system is MDA-MB-468. Briefly: Inhibition of colony formation in human MDA-MB-468 cells at 5 to 20 umol/l pretreated for 48 hrs followed by replacement of fresh medium and measured after 15 days by crystal violet staining based assay. The class given is functional, cell-based. As to conditions: dose 5-20 µmol/L.
Assay [6] relates to MDA-MB-468. Nature of the assay: Inhibition of autophagy in human MDA-MB-468 cells assessed as increase in LC3B-II expression measured after 48 hrs by immunofluorescence analysis. The class given is functional, cell-based. As to conditions: dose 5-20 µM.
Assay [7] addresses T1, Structural maintenance of chromosomes protein 1A (Homo sapiens) (UniProt Q14683).
T1 sequence (whole entry): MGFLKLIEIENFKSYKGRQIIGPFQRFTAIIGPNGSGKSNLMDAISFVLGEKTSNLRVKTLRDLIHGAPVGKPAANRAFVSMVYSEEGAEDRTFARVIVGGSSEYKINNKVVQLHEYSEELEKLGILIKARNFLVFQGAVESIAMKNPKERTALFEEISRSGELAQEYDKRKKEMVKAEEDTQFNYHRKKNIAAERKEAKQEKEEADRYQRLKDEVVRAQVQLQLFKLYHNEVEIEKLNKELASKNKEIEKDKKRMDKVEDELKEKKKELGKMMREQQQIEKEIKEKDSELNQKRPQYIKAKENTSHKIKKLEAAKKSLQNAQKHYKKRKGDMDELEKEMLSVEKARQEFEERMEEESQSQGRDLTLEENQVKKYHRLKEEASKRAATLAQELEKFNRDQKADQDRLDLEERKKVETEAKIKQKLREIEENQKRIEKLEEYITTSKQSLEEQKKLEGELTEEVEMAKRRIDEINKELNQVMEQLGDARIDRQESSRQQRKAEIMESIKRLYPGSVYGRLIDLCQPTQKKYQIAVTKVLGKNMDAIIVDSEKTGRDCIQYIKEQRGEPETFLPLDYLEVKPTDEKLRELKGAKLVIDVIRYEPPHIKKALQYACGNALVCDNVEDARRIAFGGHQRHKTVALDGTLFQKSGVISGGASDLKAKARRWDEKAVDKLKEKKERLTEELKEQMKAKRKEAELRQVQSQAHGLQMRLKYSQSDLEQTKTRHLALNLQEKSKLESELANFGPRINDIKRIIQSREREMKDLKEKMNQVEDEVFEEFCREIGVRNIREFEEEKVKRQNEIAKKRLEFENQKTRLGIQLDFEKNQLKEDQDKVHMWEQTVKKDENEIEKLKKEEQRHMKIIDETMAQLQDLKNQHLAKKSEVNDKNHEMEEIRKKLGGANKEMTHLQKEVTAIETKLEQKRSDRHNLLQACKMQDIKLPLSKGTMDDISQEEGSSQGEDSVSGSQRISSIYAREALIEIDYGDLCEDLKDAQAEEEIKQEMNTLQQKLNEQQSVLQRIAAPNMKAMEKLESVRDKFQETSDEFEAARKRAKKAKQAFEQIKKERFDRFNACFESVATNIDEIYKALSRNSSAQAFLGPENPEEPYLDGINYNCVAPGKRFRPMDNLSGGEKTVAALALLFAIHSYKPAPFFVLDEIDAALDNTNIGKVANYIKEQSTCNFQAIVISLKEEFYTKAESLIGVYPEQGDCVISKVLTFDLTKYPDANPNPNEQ
Nature of the assay: Activation of SMC1 phosphorylation in human MDA-MB-231 cells at 5 to 20 uM measured after 6 to 48 hrs by Western blot analysis. As to conditions: filed as activator, dose 5-20 µM, time 6-48 hrs. The class given is cell-based.

Assay [8] has as its target T1, Structural maintenance of chromosomes protein 1A (Homo sapiens). Briefly: Activation of SMC1 phosphorylation in human MDA-MB-468 cells at 5 to 20 uM measured after 6 to 48 hrs by Western blot analysis. The format is cell-based. As to conditions: filed as activator, dose 5-20 µM, time 6-48 hrs. (In western blotting, separated proteins are transferred to a membrane and probed.)

In assay [9] the test system is MDA-MB-231. Briefly: Induction of DNA damage in human MDA-MB-231 cells assessed as reduction in BRCA2 expression measured after 6 to 48 hrs by Western blot analysis. The format is functional, cell-based. As to conditions: dose 5-20 µM, time 6-48 hrs, DDE = dose-dependent effect.
In assay [10] the test system is MDA-MB-231. Briefly: Inhibition of autophagic flux in human MDA-MB-231 cells assessed as reduction in RNF8 expression at 5 to 20 uM measured after 6 to 48 hrs by Western blot analysis. The format is functional, cell-based. As to conditions: dose 5-20 µM, time 6-48 hrs.
For assay [11], the system named is MDA-MB-468. Nature of the assay: Inhibition of autophagic flux in human MDA-MB-468 cells assessed as reduction in polyubiquitinated H2A expression measured after 48 hrs by Western blot analysis. The class given is functional, cell-based.
Assay [12] relates to MDA-MB-468. Nature of the assay: Cell cycle arrest in human MDA-MB-468 cells assessed as increase in accumulation at S-phase at 5 to 20 uM measured after 48 hrs by propidium iodide staining based flow cytometry. As to conditions: dose 5-20 µM. The format is functional. For orientation: In flow cytometry, cells or beads pass a laser one at a time.
Assay [13] concerns MDA-MB-231. Briefly: Cell cycle arrest in human MDA-MB-231 cells assessed as reduction in cyclin A expression measured after 48 hrs by Western blot analysis. The format is functional, cell-based. As to conditions: dose 5-20 µM, DDE = dose-dependent effect.
For assay [14], the system named is MDA-MB-231. Briefly: Cell cycle arrest in human MDA-MB-231 cells assessed as reduction in CDK1 expression measured after 48 hrs by Western blot analysis. The format is functional, cell-based. As to conditions: dose 5-20 µM, DDE = dose-dependent effect.
Assay [15] deals with MDA-MB-468. Briefly: Cell cycle arrest in human MDA-MB-468 cells assessed as reduction in cyclin B expression measured after 48 hrs by Western blot analysis. As to conditions: dose 5-20 µM, DDE = dose-dependent effect. The format is functional, cell-based.
Assay [16] concerns MDA-MB-468. Briefly: Cell cycle arrest in human MDA-MB-468 cells assessed as increase in p21 expression measured after 48 hrs by Western blot analysis. The class given is functional, cell-based. As to conditions: dose 5-20 µM, DDE = dose-dependent effect.
Assay [17] deals with MDA-MB-468. Nature of the assay: Cell cycle arrest in human MDA-MB-468 cells assessed as increase in CHK1 phosphorylation at Ser 345 residue measured after 48 hrs by Western blot analysis. The format is functional, cell-based. As to conditions: dose 5-20 µM, DDE = dose-dependent effect.
The test system of assay [18] is MDA-MB-468. Nature of the assay: Induction of apoptosis in human MDA-MB-468 cells assessed as reduction in Bcl-2 expression measured after 48 hrs by Western blot analysis. As to conditions: dose 5-20 µM, DDE = dose-dependent effect. The format is functional, cell-based.
For assay [19], the system named is MDA-MB-468. Nature of the assay: Induction of apoptosis in human MDA-MB-468 cells assessed as increase in cytochrome c expression measured after 48 hrs by Western blot analysis. The format is functional, cell-based. As to conditions: dose 5-20 µM, DDE = dose-dependent effect.
Assay [20] has as its system MDA-MB-231. Briefly: Antitumor activity against human MDA-MB-231 cells xenografted in NOD/SCID mouse assessed as reduction in Ki67 expression at 5 to 15 mg/kg, ip administered at 3 days interval for 24 days and measured on day 25 by immunohistochemical analysis. The format is functional, organism-based. As to conditions: dose 5-15 mg/kg, time 25.0 day.
Assay [21] deals with MDA-MB-231. Briefly: Antitumor activity against human MDA-MB-231 cells xenografted in ip dosed NOD/SCID mouse assessed as upregulation of p62 expression administered at 3 days interval for 24 days and measured on day 25 by Western blot analysis. As to conditions: dose 5-15 mg/kg, time 25.0 day, DDE = dose-dependent effect. The format is functional, organism-based.
Assay [22] relates to MDA-MB-231. Nature of the assay: Antitumor activity against human MDA-MB-231 cells xenografted in ip dosed NOD/SCID mouse assessed as upregulation of gamma-H2AX expression administered at 3 days interval for 24 days and measured on day 25 by Western blot analysis. The class given is functional, organism-based. As to conditions: dose 5-15 mg/kg, time 25.0 day, DDE = dose-dependent effect.

Active and inactive are the calls of the source. The calls are words filed in the database; no cut-off is given here.

In general, IC50 refers to the point on the concentration scale where inhibition reaches its midpoint. In the case of `O=C(NC1CCCCC1)c1[nH]cnc1-c1nc2ccccc2[nH]1`, the IC50 is 25.4 µM in [1], 17.5 µM in [2], 15.4 µM in assay [3] and 61.4 µM in [4]. Also, the inhibition result in assay [5], in assay [6], in [10] and in assay [11] was “Active” in each case. The outcome in assay [7], in [8], in assay [12] and in [20] was Active. Further, the Activity result in assay [9], in [13], in assay [14], in assay [15], in assay [16] and in assay [17] was “Dde” each time. In addition, the Activity result in assay [18], in [19], in [21] and in assay [22] was “Dde” each time.
